{"source": "patent US10745693B2", "about": "“Methods of designing programmable inducible promoters” (WISCONSIN ALUMNI RESEARCH FOUNDATION, priority 2017, dated 2020)", "test_system": "PmeR", "test": "Induction assay of PmeR-enriched promoter library driving GFP in E. coli DH10B (flow cytometer)", "type": "cell-based, Pseudomonas syringae", "settings": "300 uM naringenin, over-night growth, E. coli DH10B population repressed by PmeR", "from_the_text": "In this example, the allosteric transcription factor was PmeR (repressor) and the inducer molecule was naringenin.\nThe post in vitro enrichment of polynucleotides (with PmeR protein) was cloned into a vector to drive the expression of a green fluorescent protein using the Golden Gate assembly method. Following the transformation and over-night growth in E. coli DH10B, the fluorescent intensity distribution was profiled using a flow cytometer with 488 nm laser and 510 (25) nm filter. The delivery of the transcription repressor was through a second vector containing constitutively expressing PmeR protein. The fluorescent intensity distribution shift was captured with a flow cytometer after over-night growth. A decrease of overall fluorescent intensity was observed. The induction assay was conducted with the addition of 300 uM naringenin to the previous E. coli population with decreased fluorescence.", "data": [{"compound": "O=C1C[C@@H](c2ccc(O)cc2)Oc2cc(O)cc(O)c21", "note": "[naringenin]", "values": [{"measurement": "Change of fluorescent intensity distribution on induction", "result": "overall increase in fluorescent intensity"}]}]}
